Measured values as given in patent publication US11873298B2, “Compounds and uses thereof” (JANSSEN PHARMACEUTICA NV, priority 2017, dated 2024).
Several values for one entry are separate records, joined by “and”; a condition that tells them apart may be missing. Equal values may be shown once.

What was measured:
Format in all cases: cell-based
SCD1 = molecular target: T1, SCD1 (Homo sapiens, UniProt O00767); assay: Growth inhibition of humanized yeast strain expressing SCD1 as sole desaturase; settings: humanized yeast strain expressing SCD1
T1 construct: host or cells: S. cerevisiae ole1Δ strain (W303 pdr1Δ pdr3Δ background), plasmid pRS316 with TDH3 promoter and CYC1 terminator
T1 sequence (O00767 1-359): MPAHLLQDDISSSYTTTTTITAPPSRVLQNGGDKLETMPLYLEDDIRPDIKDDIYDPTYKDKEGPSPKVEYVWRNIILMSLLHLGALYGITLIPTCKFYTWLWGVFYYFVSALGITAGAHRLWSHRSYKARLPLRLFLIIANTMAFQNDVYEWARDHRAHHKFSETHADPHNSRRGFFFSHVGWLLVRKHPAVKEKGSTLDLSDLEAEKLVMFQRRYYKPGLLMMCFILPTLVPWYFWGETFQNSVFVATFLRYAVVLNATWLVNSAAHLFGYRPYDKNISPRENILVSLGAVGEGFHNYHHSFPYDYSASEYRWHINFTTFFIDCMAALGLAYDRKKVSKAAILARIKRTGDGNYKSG
Procedure, shortened: (§1)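 Plasmid-complemented ole1Δ yeast, drug-pump deleted (pdr1Δ pdr3Δ), depend solely on the introduced Ole1, SCD1 or SCD5 desaturase. Compounds are added from DMSO to cells in uracil-free galactose medium, 2× density 0.02, and OD600 is read after 24 h or 40 h respectively.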

SCD5 = molecular target: T2, SCD5 (Homo sapiens, UniProt Q86SK9); assay: Growth inhibition of humanized yeast strain expressing SCD5 as sole desaturase; settings: humanized yeast strain expressing SCD5
T2 construct: host or cells: S. cerevisiae ole1Δ strain (W303 pdr1Δ pdr3Δ background), plasmid pRS316 with TDH3 promoter and CYC1 terminator
T2 sequence (Q86SK9 1-330): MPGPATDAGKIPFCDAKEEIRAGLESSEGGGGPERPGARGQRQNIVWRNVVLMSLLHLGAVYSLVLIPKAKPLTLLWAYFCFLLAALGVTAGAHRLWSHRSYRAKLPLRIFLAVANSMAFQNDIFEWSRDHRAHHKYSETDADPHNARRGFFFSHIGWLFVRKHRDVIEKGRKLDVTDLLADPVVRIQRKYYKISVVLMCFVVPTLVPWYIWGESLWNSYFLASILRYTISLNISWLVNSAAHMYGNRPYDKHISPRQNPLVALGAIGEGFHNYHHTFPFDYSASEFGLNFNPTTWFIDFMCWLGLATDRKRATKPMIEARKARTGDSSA
Procedure, shortened: as §1

Ole1 = molecular target: T3, Ole1 (Saccharomyces cerevisiae, UniProt P21147); assay: Growth inhibition of yeast strain expressing Ole1 as sole desaturase; settings: yeast strain expressing Ole1 as sole desaturase
T3 construct: expressed in transfected cells; host or cells: S. cerevisiae ole1Δ strain (W303 pdr1Δ pdr3Δ background), plasmid pRS316 with TDH3 promoter and CYC1 terminator
T3 sequence (P21147 1-510): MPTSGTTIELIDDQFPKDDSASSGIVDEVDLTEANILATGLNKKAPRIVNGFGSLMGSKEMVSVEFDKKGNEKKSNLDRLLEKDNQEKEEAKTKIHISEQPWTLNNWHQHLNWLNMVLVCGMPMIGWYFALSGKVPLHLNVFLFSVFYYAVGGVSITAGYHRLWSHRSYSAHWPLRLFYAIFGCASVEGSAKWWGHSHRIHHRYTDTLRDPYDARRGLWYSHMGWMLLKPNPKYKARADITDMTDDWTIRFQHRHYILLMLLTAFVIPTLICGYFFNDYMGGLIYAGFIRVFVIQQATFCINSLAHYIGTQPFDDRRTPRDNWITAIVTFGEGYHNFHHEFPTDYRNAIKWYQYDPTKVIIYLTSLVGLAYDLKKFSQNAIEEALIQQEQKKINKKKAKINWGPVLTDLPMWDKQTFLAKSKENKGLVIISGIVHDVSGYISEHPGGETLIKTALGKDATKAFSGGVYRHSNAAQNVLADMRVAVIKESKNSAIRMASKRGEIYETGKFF
Procedure, shortened: as §1

| Compound | SCD1 % Max Inhibition (SCD1) | IC50 (SCD5) [µM] | SCD5 % Max Inhibition (SCD5) | IC50 (Ole1) [µM] | OLE1 % Max Inhibition (Ole1) | IC50 (SCD1) [µM] |
| --- | --- | --- | --- | --- | --- | --- |
| Cc1nn(C)c2cc(-c3noc(C4CCN(C(=O)CNC(=O)c5ccccc5C(F)(F)F)CC4)n3)ccc12 [Compound 271] | 67.9% | > 45 | 53.6% | > 45 | 11.7% |  |
| Cc1ncc2ccc(-c3noc(C4CCN(C(=O)C5CC(=O)N(c6ccccc6)C5)CC4)n3)cn12 (stereo not drawn) [Compound 216] | 83.82% | > 45 | 75.59% | 35.1 | 61.84% | > 45 |
| Cc1nn(C)c2cc(-c3nsc(C4CCN(C(=O)CNC(=O)c5ccccn5)CC4)n3)ccc12 [Compound 232] | 81.04% | 41.1 | 51.17% | > 45 | 4.20% | > 45 |
| CNC(=O)c1ccc(-c2noc(C3CCN(C(=O)[C@H]4CC(=O)N(c5ccccc5)C4)CC3)n2)cn1 [Compound 252] | 80.73% | > 45 | 39.69% | > 45 | 27.85% |  |
| Cc1nn(C)c2cc(-c3noc(C4CCN(C(=O)[C@H]5CC(=O)N(c6ccccc6)C5)C(C)C4)n3)ccc12 (stereo partly drawn) [Compound 240] | 66.85% | > 45 | 12.95% | > 45 | 4.30% | > 45 |
| CC(C)n1cc2cc(-c3noc(C4CCN(C(=O)CNC(=O)c5ccccc5)CC4)n3)ccc2n1 [Compound 229] | 66.51% | > 45 | 71.18% | > 45 | 89.56% | > 45 |
| Cc1nn(C)c2cc(-c3noc(N4CCN(C(=O)N5CCCCC5)CC4)n3)ccc12 [Compound 327] | 66.5% | > 45 | 68.0% | > 45 | 74.8% |  |
| Cc1nn(C)c2cc(-c3noc(C4CCN(C(=O)CC5CC5)CC4)n3)ccc12 [Compound 264] | 56.37% | > 45 | 7.97% | > 45 | 15.52% | 40.8 |
| O=C(c1ccccc1)N1CCC(c2nc(N3CC4(COC4)C3)no2)CC1 [Compound 334] | 49.3% | > 45 | 66.7% | > 45 | 84.4% |  |
| CC(C)c1ccc(C(=O)N2CCC(c3nc(-c4ccc5cnn(C)c5c4)no3)CC2)cc1 [Compound 204] | 30.36% and 21.99% | > 45 | 0.25% and 2.95% | > 45 | 79.30% and 50.38% | > 45 |
| CCOC(=O)C(C)(C)n1ncc2ccc(-c3noc(C4CCN(C(=O)C5CC(=O)N(c6ccccc6)C5)CC4)n3)cc21 (stereo not drawn) [Compound 196] | 86.58% | > 45 | 75.88% | > 45 | 93.87% | > 45 |
| COC(=O)N1CCC(c2nc(-c3ccc4c(C)nn(C)c4c3)no2)CC1 [Compound 273] | 67.9% | > 45 | 55.0% | > 45 | 78.7% |  |
| COc1ccc(N2CC(C(=O)N3CCC(c4nc(-c5ccc6c(C)nn(C)c6c5)no4)CC3)CC2=O)cc1 (stereo not drawn) [Compound 206] | 93.66% | > 45 | 19.89% | > 45 | 5.25% | > 45 |
| Cn1c(=O)n(C)c2cc(-c3noc(C4CCN(C(=O)[C@H]5CC(=O)N(c6ccccn6)C5)CC4)n3)ccc21 [Compound 256] | 76.04% | > 45 | 72.11% | > 45 | 4.16% |  |
| Cc1nn(C)c2cc(-c3noc(N4CCN(C(=O)c5ccccc5)CC4)n3)ccc12 [Compound 261] | 73.42% | > 45 | 82.31% | > 45 | 94.41% |  |
| O=C(CNC(=O)c1ccccc1)NCCc1nc(-c2ccccc2)no1 [Compound 485] | 62.60% | 30 | 65.42% | > 45 | 75.19% |  |
| COc1cccc(-c2noc(C3CC(=O)N(c4ccc(C)c(C)c4)C3)n2)c1 (stereo not drawn) [Compound 490] | 63.84% | 35.1 | 50.39% | > 45 | 96.38% | 38.8 |
| Cc1nn(C)c2cc(-c3nsc(C4CCN(C(=O)OC(C)(C)C)CC4)n3)ccc12 [Compound 300] | 78.1% | > 45 | 36.0% | > 45 | 79.7% |  |
| Cn1ncc2ccc(NC(=O)C3CCN(C(=O)C4CC(=O)N(c5ccccc5)C4)CC3)cc21 (stereo not drawn) [Compound 213] | 86.35% | > 45 | 85.33% | > 45 | 94.72% | > 45 |
| Cc1nn(C)c2cc(-c3noc(N4CCN(C(=O)[C@H]5CC(=O)N(c6ccccc6)C5)CC4)n3)cnc12 [Compound 246] | 77.22% | > 45 | 66.03% | > 45 | 13.06% |  |
| Cc1nn(C)c2cc(-c3noc(C4CCN(C(=O)CNC(=O)c5cccc(C#N)c5)CC4)n3)ccc12 [Compound 322] | 73.6% | > 45 | 29.8% | > 45 | 9.0% |  |
| COc1ccc(-c2noc(C3CCN(C(=O)c4cccc(C(C)C)c4)CC3)n2)cc1OC [Compound 167] | 6.11% | > 45 | 2.38% | 38.4 | 57.28% | > 45 |
| Cc1nn(C)c2cc(-c3noc(C4CCN(C(=O)N5CCOCC5)CC4)n3)ccc12 [Compound 311] | 72.9% | > 45 | 60.5% | > 45 | 90.8% |  |
| Cc1ccc(N2C[C@H](C(=O)N3CCC(c4nc(-c5ccc6c(C)nn(C)c6c5)no4)CC3)CC2=O)nc1 [Compound 303] | 94.3% and 65% | > 45 | 15.6% and 20.68% | > 45 | 14.2% and 8.50% | ≥ 45 |
| C[C@H]1CN(c2noc(C3CCN(C(=O)C4CC(=O)N(c5cccc(Cl)c5)C4)CC3)n2)C[C@H](C)O1 (stereo partly drawn) [Compound 324] | 74.9% | > 45 | 68.7% | > 45 | 90.5% | > 45 |
| CCOc1ccc(-c2noc(C3CCN(C(=O)C4CN(C(=O)c5ccccc5)C4)CC3)n2)cc1OC [Compound 237] | 71.76% | 32.6 | 45.34% | > 45 | 18.53% | > 45 |
